Laboratory results reported in ChEMBL document CHEMBL3885861, “Open TG-GATES”.

Organism: Rattus norvegicus
Assay: Open TG-GATES - Regimen: Daily Repeat
Format: toxicity, organism-based, Sprague-Dawley
Parameters: regimen Daily Repeat, gender Male, age 6 weeks
Conditions: in vivo, po, route gavage; for APTT / Bas / Eos / Fbg / Hb / Ht / Lym / MCH / MCHC / MCV / Mono / Neu / PT / Plat / RBC / Ret / WBC: tissue Blood; for KIDNEY_L / KIDNEY_R / KIDNEY_TOTAL: tissue Kidney; for LIVER: tissue Liver; for A/G / ALP / ALT / AST / BUN / CRE / Ca / Cl / DBIL / GLC / IP / K / LDH / Na / PL / RALB / TBIL / TC / TG / TP / gamma-GTP: tissue Plasma
[1] = 0 mg/kg, 72 h, dose level Control, time 3 day
[2] = 0 mg/kg, […], dose level Control, time 7 day
[3] = 0 mg/kg, […], dose level Control, time 14 day
[4] = 0 mg/kg, […], dose level Control, time 28 day
[5] = 3 mg/kg, 72 h, dose level Low, time 3 day
[6] = 3 mg/kg, […], dose level Low, time 7 day
[7] = 3 mg/kg, […], dose level Low, time 14 day
[8] = 3 mg/kg, […], dose level Low, time 28 day

C[C@H]1C(=O)O[C@@H]2CCN3CC=C(COC(=O)[C@](C)(O)[C@]1(C)O)[C@H]23 [MONOCROTALINE]
TERMINAL_BW [1]: 230.9 g
APTT [1]: 21.2 s
Bas [1]: 0%
Eos [1]: 0.6%
Fbg [1]: 311.8 mg/dL
Hb [1]: 13.5 g/dL
Ht [1]: 39.5%
Lym [1]: 83.8%
MCH [1]: 21.5 pg
MCHC [1]: 34.3%
MCV [1]: 62.6 fL
Mono [1]: 2%
Neu [1]: 12.4%
PT [1]: 15.8 s
Plat [1]: 119.6 x10_4/uL
RBC [1]: 631.2 x10_4/ul
Ret [1]: 6.9%
WBC [1]: 91.2 x10_2/uL
KIDNEY_L [1]: 1 g
KIDNEY_R [1]: 1 g
KIDNEY_TOTAL [1]: 2.1 g
LIVER [1]: 11 g
A/G [1]: 1.2
ALP [1]: 1771.6 IU/L
ALT [1]: 40.2 IU/L
AST [1]: 70 IU/L
BUN [1]: 18.2 mg/dL
CRE [1]: 0.2 mg/dL
Ca [1]: 10.6 mg/dL
Cl [1]: 105.6 meq/L
DBIL [1]: 0.004 mg/dL
GLC [1]: 191.4 mg/dL
IP [1]: 6.9 mg/dL
K [1]: 4.6 meq/L
LDH [1]: 222.4 IU/L
Na [1]: 142.2 meq/L
PL [1]: 164 mg/dL
RALB [1]: 3.1 g/dL
TBIL [1]: 0.008 mg/dL
TC [1]: 83.8 mg/dL
TG [1]: 119 mg/dL
TP [1]: 5.6 g/dL
gamma-GTP [1]: 1.2 IU/L
TERMINAL_BW [2]: 267 g
TERMINAL_BW [3]: 315.5 g
TERMINAL_BW [4]: 368.8 g
APTT [2]: 21 s
Bas [2]: 0%
Eos [2]: 0.8%
Fbg [2]: 309.8 mg/dL
Hb [2]: 13.3 g/dL
Ht [2]: 38.4%
Lym [2]: 80.6%
MCH [2]: 20.8 pg
MCHC [2]: 34.7%
MCV [2]: 60.2 fL
Mono [2]: 2.6%
Neu [2]: 15.2%
PT [2]: 16.6 s
Plat [2]: 111.7 x10_4/uL
RBC [2]: 638.2 x10_4/ul
Ret [2]: 6.1%
WBC [2]: 108.8 x10_2/uL
APTT [3]: 20.5 s
Bas [3]: 0%
Eos [3]: 1%
Fbg [3]: 323.2 mg/dL
Hb [3]: 14.1 g/dL
Ht [3]: 39.6%
Lym [3]: 78.4%
MCH [3]: 20.7 pg
MCHC [3]: 35.6%
MCV [3]: 58.1 fL
Mono [3]: 2.8%
Neu [3]: 16.8%
PT [3]: 16.7 s
Plat [3]: 104.7 x10_4/uL
RBC [3]: 681.6 x10_4/ul
Ret [3]: 4.5%
WBC [3]: 124 x10_2/uL
APTT [4]: 22.4 s
Bas [4]: 0%
Eos [4]: 1.2%
Fbg [4]: 314.2 mg/dL
Hb [4]: 14.7 g/dL
Ht [4]: 40.6%
Lym [4]: 82.2%
MCH [4]: 19.7 pg
MCHC [4]: 36.1%
MCV [4]: 54.6 fL
Mono [4]: 2%
Neu [4]: 13.6%
PT [4]: 16 s
Plat [4]: 102 x10_4/uL
RBC [4]: 744.4 x10_4/ul
Ret [4]: 2.6%
WBC [4]: 110.5 x10_2/uL
KIDNEY_L [2]: 1.1 g
KIDNEY_R [2]: 1.1 g
KIDNEY_TOTAL [2]: 2.2 g
KIDNEY_L [3]: 1.3 g
KIDNEY_R [3]: 1.3 g
KIDNEY_TOTAL [3]: 2.5 g
KIDNEY_L [4]: 1.3 g
KIDNEY_R [4]: 1.4 g
KIDNEY_TOTAL [4]: 2.7 g
LIVER [2]: 12.7 g
LIVER [3]: 13.3 g
LIVER [4]: 14.7 g
A/G [2]: 1.2
ALP [2]: 1469.6 IU/L
ALT [2]: 37.8 IU/L
AST [2]: 65 IU/L
BUN [2]: 18 mg/dL
CRE [2]: 0.2 mg/dL
Ca [2]: 10.7 mg/dL
Cl [2]: 105.4 meq/L
DBIL [2]: 0 mg/dL
GLC [2]: 187 mg/dL
IP [2]: 7 mg/dL
K [2]: 4.3 meq/L
LDH [2]: 182.2 IU/L
Na [2]: 142.4 meq/L
PL [2]: 156.2 mg/dL
RALB [2]: 3.1 g/dL
TBIL [2]: 0.002 mg/dL
TC [2]: 79.6 mg/dL
TG [2]: 111 mg/dL
TP [2]: 5.6 g/dL
gamma-GTP [2]: 1 IU/L
A/G [3]: 1.2
ALP [3]: 1565.6 IU/L
ALT [3]: 36 IU/L
AST [3]: 68.6 IU/L
BUN [3]: 19.4 mg/dL
CRE [3]: 0.2 mg/dL
Ca [3]: 10.8 mg/dL
Cl [3]: 105.6 meq/L
DBIL [3]: 0.002 mg/dL
GLC [3]: 194 mg/dL
IP [3]: 6.6 mg/dL
K [3]: 4.3 meq/L
LDH [3]: 217 IU/L
Na [3]: 142.4 meq/L
PL [3]: 144 mg/dL
RALB [3]: 3.2 g/dL
TBIL [3]: 0 mg/dL
TC [3]: 66.6 mg/dL
TG [3]: 148 mg/dL
TP [3]: 5.9 g/dL
gamma-GTP [3]: 1.6 IU/L
A/G [4]: 1.1
ALP [4]: 1093.2 IU/L
ALT [4]: 53 IU/L
AST [4]: 79.6 IU/L
BUN [4]: 18.8 mg/dL
CRE [4]: 0.2 mg/dL
Ca [4]: 10.6 mg/dL
Cl [4]: 106.8 meq/L
DBIL [4]: 0 mg/dL
GLC [4]: 190.2 mg/dL
IP [4]: 6.3 mg/dL
K [4]: 4.1 meq/L
LDH [4]: 176.4 IU/L
Na [4]: 141.8 meq/L
PL [4]: 152.6 mg/dL
RALB [4]: 3.2 g/dL
TBIL [4]: 0.01 mg/dL
TC [4]: 74 mg/dL
TG [4]: 160.4 mg/dL
TP [4]: 6 g/dL
gamma-GTP [4]: 1 IU/L
TERMINAL_BW [5]: 234.1 g
APTT [5]: 21.2 s
Bas [5]: 0%
Eos [5]: 0.8%
Fbg [5]: 311.8 mg/dL
Hb [5]: 13.5 g/dL
Ht [5]: 39.5%
Lym [5]: 80.2%
MCH [5]: 20.8 pg
MCHC [5]: 34%
MCV [5]: 61.2 fL
Mono [5]: 2%
Neu [5]: 16.2%
PT [5]: 15.9 s
Plat [5]: 130.1 x10_4/uL
RBC [5]: 646.2 x10_4/ul
Ret [5]: 7.1%
WBC [5]: 122.6 x10_2/uL
KIDNEY_L [5]: 1 g
KIDNEY_R [5]: 1 g
KIDNEY_TOTAL [5]: 2 g
LIVER [5]: 10.8 g
A/G [5]: 1.2
ALP [5]: 1957.6 IU/L
ALT [5]: 43.6 IU/L
AST [5]: 74.6 IU/L
BUN [5]: 16.4 mg/dL
CRE [5]: 0.1 mg/dL
Ca [5]: 10.7 mg/dL
Cl [5]: 106 meq/L
DBIL [5]: 0.002 mg/dL
GLC [5]: 187.2 mg/dL
IP [5]: 6.9 mg/dL
K [5]: 4.4 meq/L
LDH [5]: 267.2 IU/L
Na [5]: 142.8 meq/L
PL [5]: 154 mg/dL
RALB [5]: 3.2 g/dL
TBIL [5]: 0.014 mg/dL
TC [5]: 83.8 mg/dL
TG [5]: 104 mg/dL
TP [5]: 5.7 g/dL
gamma-GTP [5]: 1.2 IU/L
TERMINAL_BW [6]: 266.3 g
TERMINAL_BW [7]: 294.8 g
TERMINAL_BW [8]: 359.6 g
APTT [6]: 22.4 s
Bas [6]: 0%
Eos [6]: 0.8%
Fbg [6]: 328.2 mg/dL
Hb [6]: 13.9 g/dL
Ht [6]: 39.9%
Lym [6]: 80.4%
MCH [6]: 21.1 pg
MCHC [6]: 34.8%
MCV [6]: 60.5 fL
Mono [6]: 2.4%
Neu [6]: 15.2%
PT [6]: 16.2 s
Plat [6]: 119.7 x10_4/uL
RBC [6]: 659.4 x10_4/ul
Ret [6]: 5.7%
WBC [6]: 105.4 x10_2/uL
APTT [7]: 20.2 s
Bas [7]: 0%
Eos [7]: 0.4%
Fbg [7]: 413 mg/dL
Hb [7]: 14.3 g/dL
Ht [7]: 40.6%
Lym [7]: 81.6%
MCH [7]: 20.1 pg
MCHC [7]: 35%
MCV [7]: 57.4 fL
Mono [7]: 3.8%
Neu [7]: 12.8%
PT [7]: 16 s
Plat [7]: 120.5 x10_4/uL
RBC [7]: 708 x10_4/ul
Ret [7]: 3.3%
WBC [7]: 187.2 x10_2/uL
APTT [8]: 23 s
Bas [8]: 0%
Eos [8]: 0.8%
Fbg [8]: 332.8 mg/dL
Hb [8]: 14.1 g/dL
Ht [8]: 40.2%
Lym [8]: 84.2%
MCH [8]: 19 pg
MCHC [8]: 35.1%
MCV [8]: 54 fL
Mono [8]: 1.8%
Neu [8]: 12.4%
PT [8]: 15.4 s
Plat [8]: 102.5 x10_4/uL
RBC [8]: 745.6 x10_4/ul
Ret [8]: 4.2%
WBC [8]: 146.6 x10_2/uL
KIDNEY_L [6]: 1.1 g
KIDNEY_R [6]: 1.2 g
KIDNEY_TOTAL [6]: 2.3 g
KIDNEY_L [7]: 1.2 g
KIDNEY_R [7]: 1.2 g
KIDNEY_TOTAL [7]: 2.4 g
KIDNEY_L [8]: 1.3 g
KIDNEY_R [8]: 1.3 g
KIDNEY_TOTAL [8]: 2.6 g
LIVER [6]: 12.4 g
LIVER [7]: 13.6 g
LIVER [8]: 17.2 g
A/G [6]: 1.1
ALP [6]: 1693.8 IU/L
ALT [6]: 43.2 IU/L
AST [6]: 75 IU/L
BUN [6]: 17 mg/dL
CRE [6]: 0.2 mg/dL
Ca [6]: 10.7 mg/dL
Cl [6]: 105.6 meq/L
DBIL [6]: 0 mg/dL
GLC [6]: 187 mg/dL
IP [6]: 7 mg/dL
K [6]: 4.2 meq/L
LDH [6]: 248 IU/L
Na [6]: 142.6 meq/L
PL [6]: 151.6 mg/dL
RALB [6]: 3.1 g/dL
TBIL [6]: 0.008 mg/dL
TC [6]: 80.8 mg/dL
TG [6]: 121.8 mg/dL
TP [6]: 5.8 g/dL
gamma-GTP [6]: 1.2 IU/L
A/G [7]: 1
